Experiment [1] has as its target T1, ENPP1 (Homo sapiens (Human), UniProt P22413). Put plainly: ATP-Glo enzymatic assay (ATP substrate, AMP-Glo readout). In kind it is biochemical. The conditions noted are these: 25° C. for 60 min, 50 mM Tris pH 8.8.
Experiment [2] concerns the target T1, ENPP1. Put plainly: cGAMP-Glo enzymatic assay (2′3′-cGAMP substrate, AMP-Glo readout). In kind it is biochemical. As to conditions: substrate 2′3′-cGAMP; 25° C. for 60 min; 50 mM Tris pH 8.8. In outline: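 Human ENPP1 incubated with compound (11-point, 3-fold series) and either ATP or 2′3′-cGAMP substrate for 60 min at 25 °C in 50 mM Tris pH 8.8, 250 mM NaCl, 0.1% BSA. AMP produced detected by AMP-Glo then kinase detection reagent, 1 h each at 25 °C, read as luminescence.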

T1 sequence (P22413 whole entry, species assumed): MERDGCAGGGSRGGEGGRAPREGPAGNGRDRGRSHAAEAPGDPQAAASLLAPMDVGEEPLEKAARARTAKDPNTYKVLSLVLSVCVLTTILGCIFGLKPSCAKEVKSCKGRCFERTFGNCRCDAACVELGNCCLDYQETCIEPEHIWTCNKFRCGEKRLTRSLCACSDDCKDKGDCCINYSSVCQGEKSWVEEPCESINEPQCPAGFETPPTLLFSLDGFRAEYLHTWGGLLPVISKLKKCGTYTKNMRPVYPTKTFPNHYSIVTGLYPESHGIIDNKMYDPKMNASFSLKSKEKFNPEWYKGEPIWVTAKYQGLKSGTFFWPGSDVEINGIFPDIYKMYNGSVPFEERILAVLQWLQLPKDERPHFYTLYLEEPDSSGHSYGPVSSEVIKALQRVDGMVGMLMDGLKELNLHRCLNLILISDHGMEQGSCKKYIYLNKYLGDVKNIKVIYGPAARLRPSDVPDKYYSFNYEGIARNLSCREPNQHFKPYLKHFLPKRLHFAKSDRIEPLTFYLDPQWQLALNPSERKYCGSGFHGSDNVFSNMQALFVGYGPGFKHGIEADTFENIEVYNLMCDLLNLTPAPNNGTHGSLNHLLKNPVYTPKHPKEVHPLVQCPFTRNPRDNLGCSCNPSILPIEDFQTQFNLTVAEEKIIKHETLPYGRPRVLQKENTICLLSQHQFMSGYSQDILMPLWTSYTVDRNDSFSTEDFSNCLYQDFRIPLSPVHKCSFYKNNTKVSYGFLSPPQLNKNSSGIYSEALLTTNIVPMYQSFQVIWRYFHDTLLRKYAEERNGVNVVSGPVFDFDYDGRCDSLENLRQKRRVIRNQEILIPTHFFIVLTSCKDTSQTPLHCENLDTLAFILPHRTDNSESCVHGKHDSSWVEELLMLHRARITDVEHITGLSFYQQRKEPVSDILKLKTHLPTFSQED

For `COc1ncc2nc(C)n(Cc3ccc(S(N)(=O)=O)cn3)c2c1-c1ccccc1` [Example 74, 6-((6-methoxy-2-methyl-7-phenyl-1H-imidazo[4,5-c]pyridin-1-yl)methyl)pyridine-3-sulfonamide], the IC50 in experiment [1] and in experiment [2] was under 1 nM each time.
`COc1ncc2nc(C(F)F)n(Cc3ccc(S(N)(=O)=O)cn3)c2c1-c1ccccc1` [Example 75, 6-((2-(difluoromethyl)-6-methoxy-7-phenyl-1H-imidazo[4,5-c]pyridin-1-yl)methyl)pyridine-3-sulfonamide]: the IC50 in experiment [1] and in experiment [2] was under 1 nM each time.
Consider `COc1ncc2nc(C(F)F)n(Cc3ncc(S(N)(=O)=O)cc3F)c2c1-c1ccccc1` [Example 76, 6-((2-(difluoromethyl)-6-methoxy-7-phenyl-1H-imidazo[4,5-c]pyridin-1-yl)methyl)-5-fluoropyridine-3-sulfonamide], for which the IC50 in experiment [1] and in experiment [2] was under 1 nM throughout.
Take `COc1ncc2nc(C(F)(F)F)n(Cc3ccc(S(N)(=O)=O)cn3)c2c1-c1ccccc1` [Example 77]: the IC50 in experiment [1] and in experiment [2] was under 1 nM throughout.
As for `COc1ncc2nc(C(F)(F)F)n(Cc3ncc(S(N)(=O)=O)cc3F)c2c1-c1ccccc1` [Example 78, 5-fluoro-6-((6-methoxy-7-phenyl-2-(trifluoromethyl)-1H-imidazo[4,5-c]pyridin-1-yl)methyl)pyridine-3-sulfonamide], the IC50 in experiment [1] and in experiment [2] was under 1 nM throughout.
For `Cc1ncc2c(c1-c1ccccc1)n(Cc1ncc(S(N)(=O)=O)cc1F)c(=O)n2C` [Example 79, 6-((3,6-dimethyl-2-oxo-7-phenyl-2,3-dihydro-1H-imidazo[4,5-c]pyridin-1-yl)methyl)-5-fluoropyridine-3-sulfonamide], the IC50 in experiment [1] and in experiment [2] was under 1 nM throughout.
On to `COc1ncc2c(c1-c1ccccc1)n(Cc1ncc(S(N)(=O)=O)cc1F)c(=O)n2C` [Example 80, 5-fluoro-6-((6-methoxy-3-methyl-2-oxo-7-phenyl-2,3-dihydro-1H-imidazo[4,5-c]pyridin-1-yl)methyl)pyridine-3-sulfonamide], for which the IC50 in experiment [1] and in experiment [2] was under 1 nM in each case.
As for `Cc1ncc2c(c1-c1ccccc1)n(Cc1ccc(S(N)(=O)=O)cn1)c(=O)n2C` [Example 81, 6-((3,6-dimethyl-2-oxo-7-phenyl-2,3-dihydro-1H-imidazo[4,5-c]pyridin-1-yl)methyl)pyridine-3-sulfonamide], the IC50 in experiment [1] and in experiment [2] was under 1 nM throughout.
Regarding `COc1ncc2c(c1-c1ccccc1)n(Cc1ccc(S(N)(=O)=O)cn1)c(=O)n2C` [Example 82, 6-((6-methoxy-3-methyl-2-oxo-7-phenyl-2,3-dihydro-1H-imidazo[4,5-c]pyridin-1-yl)methyl)pyridine-3-sulfonamide], the IC50 in experiment [1] and in experiment [2] was under 1 nM throughout.
Take `[2H]C([2H])([2H])Oc1ncc2nc(C)n(Cc3ccc(S(N)(=O)=O)cc3)c2c1-c1ccccc1` [Example 84, 4-((6-(methoxy-d3)-2-methyl-7-phenyl-1H-imidazo[4,5-c]pyridin-1-yl)methyl)benzenesulfonamide]: the IC50 in experiment [1] and in experiment [2] was under 1 nM throughout.
Consider `[2H]C([2H])([2H])Oc1ncc2nc(C)n(Cc3ncc(S(N)(=O)=O)cc3F)c2c1-c1ccccc1` [Example 85, 5-fluoro-6-((6-(methoxy-d3)-2-methyl-7-phenyl-1H-imidazo[4,5-c]pyridin-1-yl)methyl)pyridine-3-sulfonamide], for which the half-inhibitory concentration (IC50) in experiment [1] and in experiment [2] was under 1 nM in each case.
In the case of `[2H]C([2H])([2H])Oc1ncc2nc(C(F)F)n(Cc3ncc(S(N)(=O)=O)cc3F)c2c1-c1ccccc1` [Example 86, 6-((2-(difluoromethyl)-6-(methoxy-d3)-7-phenyl-1H-imidazo[4,5-c]pyridin-1-yl)methyl)-5-fluoropyridine-3-sulfonamide], the IC50 in experiment [1] and in experiment [2] was under 1 nM throughout.

The IC50 is the concentration that gives 50% inhibition. Lower therefore signals higher potency.
